Patent EP0099438A1, “2-Functionalised diaryl as-triazines useful in therapy” (PIERRE FABRE S.A., priority 1982, dated 1984)

Columns and labels:
[1] = Acute oral toxicity in mice (LD50, method of Miller and Tainter); conditions: in vivo; mouse about 20 g, oral administration; read-out: DL50 voie orale
Description: L'étude de la toxicité a été effectuée chez la souris conventionnelle pesant environ 20 grammes.
Les substances ont été administrées par voie orale. Les doses létales 50 sont exprimées en mg/kg et ont été calculées selon la méthode de MILLER et TAINTER, Proc. Scc. Exper. Biol. Med. 1944, 57, 261.

P.R.P. de LAPIN = test: In vitro platelet anti-aggregation, arachidonic acid-induced, in rabbit PRP; format: cell-based; conditions: dissolved in PEG 400, incubated 1 minute with PRP before arachidonic acid 2 x 10^-4M; ranking in words
Description: Les produits sont dissous dans le PEG 400, puis additionnés au P.R.P. de LAPIN puis incubés une minute avant l'addition d'agent agrégant (acide arachidonique 2 x 10^-4M). Le produit le plus actif est le ST 938.

[2] = Qualitative solubility in water and solvents; format: physicochemical; conditions: for Insoluble dans: media in which the compound is insoluble; for Soluble dans: media in which the compound is soluble
souris = test: Phenylbenzoquinone (PBQ) writhing test (Siegmund), analgesic activity; format: in vivo; conditions: po, 0.5 h; mouse, per os 30 minutes before intraperitoneal PBQ injection; read-out: DE50 (the source's name)
Protocol: L'activité sur le test des contorsions à la phényl benzoquinone (PBQ) selon SIEGMUND et Coll., J. Pharm. Exptl. Ther. 1957, 119, 453, a été déterminée après administration du produit per os; la dose est exprimée en mg/kg chez la souris 30 minutes avant l'injection intra-péritonéale de l'agent algogène.
Les résultats sont exprimés en pourcentage de variation du nombre de contorsions. Pour les molécules les plus actives nous avons déterminé la DE50, les résultats sont répertoriés dans le tableau suivant : […]

| Structure (SMILES) | LD50 [1] | Propriétés antiagrégantes (in vitro) (P.R.P. de LAPIN) | Insoluble dans [2] | Soluble dans [2] | ED50 (souris) |
| --- | --- | --- | --- | --- | --- |
| COc1ccc(-c2nc(=O)n(CCCCl)nc2-c2ccc(OC)cc2)cc1 [ST 938, Oxo-3 chloropropyl-2 di(paraméthoxyphényl)-5-6 as triazine] | ≥ 1000 mg/kg | le plus actif | l'eau, les bases et les acides dilués et l'éther | les alcools, le benzène, le chlorure de méthylène et le chloroforme |  |
| C=COCCn1nc(-c2ccc(OC)cc2)c(-c2ccc(OC)cc2)nc1=O [ST 777, Oxo-3 vinyloxyéthyl-2 di(paraméthoxyphényl)-5-6 as triazine] | > 1000 mg/kg |  | l'eau, les bases et les acides dilués et l'éther | les alcools, le benzène, le chlorure de méthylène et le chloroforme | 10 mg/kg |
| CCOC(=O)C(C(=O)OCC)n1nc(-c2ccc(OC)cc2)c(-c2ccc(OC)cc2)nc1=O [ST 824, Oxo-3 diéthylmalonyl-2 di(paraméthoxyphényl)-5-6 as triazine] | > 1000 mg/kg |  | l'eau, les bases et les acides dilués et l'éther | les alcools, le benzène, le chlorure de méthylène et le chloroforme |  |
| CN(C)c1ccc(-c2nc(=O)n(CCO)nc2-c2ccc(N(C)C)cc2)cc1 [ST 817, Oxo-3 hydroxyéthyl-2 di(paradimétnylaminophényl)-5-6 as triazine] | > 1000 mg/kg |  | les bases diluées aqueuses, l'eau, le benzène et l'éther | les acides dilués, les alcools, le chlorure de méthylène et le chloroforme | 1.5 mg/kg |
| CN(C)c1ccc(-c2nc(=O)n(CCOC(=O)c3cccnc3)nc2-c2ccc(N(C)C)cc2)cc1 [ST 883, Oxo-3 nicotinoyloxyéthyl-2 di(paradiméthylaminophényl) 5-6 as triazine] | > 1000 mg/kg |  | l'eau et les bases diluées, l'éther | les acides dilués, les alcools, le benzène, le chloroforme et le chlorure de méthylène | 3.1 mg/kg |
| COc1ccc(-c2nc(=O)n(CCCN3CCN(C)CC3)nc2-c2ccc(OC)cc2)cc1 [ST 881, Dichlorhydratede l'oxo-3 N méthyl piperazinyl-3' propyl-2 di(paraméthoxyphényl)-5-6 as triazine] | > 1000 mg/kg |  | le benzène, le chlorure de méthylène et le chloroforme | l'eau, les acides dilués et les alcools | 6.7 mg/kg |
| CN(C)c1ccc(-c2nc(=O)n(CC(O)CO)nc2-c2ccc(N(C)C)cc2)cc1 (stereo not shown) [ST 886] | > 1000 mg/kg |  | l'eau et les bases diluées, l'éther | les acides dilués aqueux, les alcools, le benzène, le chlorure de méthylène et le chloroforme | 5.6 mg/kg |
| C=CCNCCCn1nc(-c2ccc(OC)cc2)c(-c2ccc(OC)cc2)nc1=O [ST 876, Oxalatede l'oxo-3 γallylamino propyl-2 di(paraméthoxyphényl)-5-6 as triazine] | 750 mg/kg |  | le benzène, l'éther et le chloroforme | l'eau, les alcools, et le chlorure de méthylène |  |
| COc1ccc(-c2nc(=O)n(CCO)nc2-c2ccc(OC)cc2)cc1 [ST 791, Oxo-3 hydroxyéthyl-2 di(paraméthoxyphényl)-5-6 as triazine] | > 1000 mg/kg |  | l'eau, les bases et les acides dilués et l'éther | les alcools, le benzène, le chlorure de méthylène et le chloroforme | 9 mg/kg |
| CN(C)c1ccc(-c2nc(=O)n(CCCCl)nc2-c2ccc(N(C)C)cc2)cc1 [ST 882, Oxo-3 γ-chloropropyl-2 di(paradiméthyiaminophényl) 5-6 as triazine] | > 1000 mg/kg |  | l'eau et les bases diluées, et l'éther | les acides dilués aqueux, les alcools, le benzène, le chlorure de méthylène et le chloroforme | 4.6 mg/kg |
| CN(C)c1ccc(-c2nc(=O)n(CC(N)=O)nc2-c2ccc(N(C)C)cc2)cc1 [ST 812, Oxo-3 acétamido-2 di(paradiméthylaminophényl)-5-6 as triazine] | > 1000 mg/kg |  | l'eau, les bases diluées, les alcools, le benzène et l'éther | les acides dilués et le chlorure de méthylène | 12 mg/kg |
| COc1ccc(-c2nc(=O)n(C(C)CN(C)C)nc2-c2ccc(OC)cc2)cc1 (stereo not shown) [ST 766] | 750 mg/kg |  | l'eau, les bases diluées, le benzène et l'éther | les acides dilués, les alcools, le chlorure de méthylène et le chloroforme | 11 mg/kg |
| COc1ccc(-c2nc(=O)n(CCN3CCOCC3)nc2-c2ccc(OC)cc2)cc1 [ST 728, Oxo-3 morpholino éthyl-2 di(paraméthoxyphényl)-5-6 as triazine] | > 1000 mg/kg |  | l'eau, les bases diluées et l'éther | les acides, les alcools, le benzène, le chlorure de méthylène et le chloroforme |  |
